These are literature values, as cited in patent US20210215697A1, “Serum Biomarkers” (BerGenBio ASA, priority 2018, published 2021).

Molecules are shown by their SMILES.

In general, IC50 refers to the concentration at which inhibition is half-maximal.

One data set has as its system OCI-AML5 cells. Particulars: Ben-Batalla et al, 2013.

For `Nc1nc(Nc2ccc3c(c2)CC[C@@H](N2CCCC2)CC3)nn1-c1cc2c(nn1)-c1ccccc1CCC2` [BGB324/R428/bemcentinib, bemcentinib], the IC50 with Mv4-11 cell line (Mv4-11, "responder" AML cell line) was 140 nM; in the data set with OCI-M1 cell line (OCI-M1, "non-responder" AML cell line) it was 1800 nM; with Kasumi cell line ("non-responder" AML cell line) it was 1200 nM; in the data set with MOLM13 cell line (MOLM13, "responder" AML cell line), 450 nM.

In the case of `Nc1nc(Nc2ccc3c(c2)CC[C@@H](N2CCCC2)CC3)nn1-c1cc2c(nn1)-c1ccccc1CCC2` [BGB324, 1-(6,7-dihydro-5H-benzo[6,7]cyclohepta[1,2-c]pyridazin-3-yl)-N3-((7-(S)-pyrrolidin-1-yl)-6,7,8,9-tetrahydro-5H-benzo[7]annulene-2-yl)-1H-1,2,4-triazole-3,5-diamine], the “IC50 to Axl inhibitors (in words)” value in the data set on Mv4-11 cell line (Mv4-11, Ben-Batalla et al, 2013) is recorded as “low”; in the data set on OCI-AML5 cells it was “high”; in the data set with OCI-M1 cell line (OCI-M1, Ben-Batalla et al, 2013), “high”; in the data set on Kasumi cell line (Ben-Batalla et al, 2013) it was “high”; in the data set with MOLM13 cell line (MOLM13, Ben-Batalla et al, 2013) it was “low”.
